ChEMBL document CHEMBL3507680, “University of Dundee, Gates Library screen for HepG2 cell viability”

Assay: Human HepG2 cell viability assay in 384 well format
Assay type: toxicity, cell-based
Design: dose 125 nL, time 70.5 hour; cytotoxicity at 70.5 h: concentration not given beside the values
Details: HepG2 cells, read-out: Inhibition

| Compound | cytotoxicity at 70.5 h [%] |
| --- | --- |
| O=C(Cc1cccc(Cl)c1)Nc1cnccc1SCCCO | -6.16 |
| Cc1cc2c(cc1NC(=O)NCC(C)C)OCO2 | -8.91 |
| CCOc1ncccc1NC(=O)NCC(C)O (configuration not stated) | -3.67 |
| O=C(Nc1cccnc1)C1CCN(c2cc(-n3ccnc3)ncn2)CC1 | -5.59 |
| CCC1CN(C(=O)c2csc(-c3cnn(C)c3)n2)CCO1 (configuration not stated) | -10.2 |
| Cc1cn2c(n1)CCC(NC(=O)CCC(F)(F)F)C2 (configuration not stated) | -3.72 |
| O=C(NCCNc1ncccn1)N1CCN(C2CCCC2)CC1 | -8.5 |
| Cc1cnn(C2CCCN(C(=O)CCc3cscn3)C2)c1 (configuration not stated) | 2.26 |
| CC(CCc1ccccc1)NC(=O)Nc1cnn(CC(N)=O)c1 (configuration not stated) | -2.53 |
| Cc1nc(CN2CCCCC2CCc2cccs2)co1 (configuration not stated) | -9.07 |
| N#Cc1cccnc1N1CCC(C2CCCCCN2C(N)=O)CC1 (configuration not stated) | -3.78 |
| CNC(=O)C1(CCCc2ccccn2)CN(Cc2coc(C)n2)C1 | -5.7 |
| COc1ccc(CN2CCC3(CC2)CC(c2cccnc2)CO3)cc1 (configuration not stated) | -6.67 |
| CCOc1cccnc1C(=O)N1CC=C(c2ccc(O)cc2)CC1 | -7.65 |
| O=C(COc1ccc(F)cc1)N1CCCSCC1CN1CCOCC1 (configuration not stated) | 5.05 |
| COC(C)c1noc(CN2CCCNCC2)n1 (configuration not stated) | -10 |
| CCn1ncc(-c2cc(C(F)F)n3nc(CCC(=O)O)nc3n2)c1C | -1.79 |
| CCC(=O)N1CCC(NC(=O)c2cccc(-n3ccnc3)c2)C1 (configuration not stated) | -8.46 |
| CCN(Cc1nccn1C)C(=O)c1ccc(NCCc2c[nH]cn2)nc1 | 4.71 |
| Cc1cc(CN(C)C(=O)c2cccc(N3CCCC3=O)c2)no1 | -9.25 |
| CN(C(=O)c1ccc(S(=O)(=O)NC(C)(C)C)cc1)C1(C#N)CCC1 | -17.4 |

| Compound | cytotoxicity at 70.5 h [%] |
| --- | --- |
| Cc1cn2c(n1)CCC(NC(=O)CCCn1cncn1)C2 (configuration not stated) | 15.9 |
| O=C1COc2ccc(C(=O)NS(=O)(=O)c3ccc(F)cc3F)cc2N1 | -0.102 |
| CNc1ncccc1C(=O)N1CCN(C)C2(CCN(C)CC2)C1 | -7.09 |
| Cc1nnc(N2C[C@H](Oc3ccccn3)[C@H]3OCCC[C@H]32)s1 | 8.06 |
| COc1ccc(CN(C)CC(=O)c2ccc3[nH]c(=O)[nH]c3c2)cc1F | -6.51 |
| CCc1ccc2nc(C)cc(C(=O)NC3CCNC3=O)c2c1 (configuration not stated) | 0.829 |
| CNC(=O)c1cnn2c(C3CCCN3)ccnc12 (configuration not stated) | 6.37 |
| CC(C)(O)CCc1cccc(C(=O)N2CCC3(CCOCC3)CC2)c1 | -2.42 |
| O=C(NCc1ccco1)[C@@H]1C[C@H]2OCC[C@H]2N(c2ncc(F)cn2)C1 | -14.6 |
| Cc1cn2c(n1)CCC(NC(=O)c1cncnc1C)C2 (configuration not stated) | -5.83 |
| CC(C(=O)NC1CCCCC1)N1CCc2[nH]nc(C(F)(F)F)c2C1 (configuration not stated) | -7.82 |
| CC[C@@H](CO)NC(=O)c1cccc(CCC(C)(C)O)c1 | -6.14 |
| CC(C)c1nnc(CN2CCC3(CC2)Nc2ccccc2NC3=O)o1 | 18 |
| Cc1noc([C@H]2C[C@H]3OCC[C@H]3N(Cc3ccc4c(c3)OCO4)C2)n1 | -11.8 |
| Cc1noc([C@@H]2C[C@H]3OCC[C@H]3N(C(C)C)C2)n1 | 6.58 |
| CC(C)=CCN(C)C1CCCN(Cc2noc(C)n2)C1 (configuration not stated) | 21.1 |
| Cc1nc(C(C)Nc2ncnc3c2CCNCC3)c(C)s1 (configuration not stated) | -4.99 |
| O=C(NCCn1ccnc1)C1(c2ccc3c(c2)OCCO3)CCCC1 | -12 |
| Cn1ccc(C(=O)NC2CCC23CCN(C(=O)c2cnccn2)CC3)c1 (configuration not stated) | -7.61 |
| O=C(c1ccc2[nH]cnc2c1)N1CCCC1Cn1cccn1 (configuration not stated) | -8.04 |
| CNc1nc(CNC(=O)Nc2cccc(-c3nnco3)c2)cs1 | -18.7 |

| Compound | cytotoxicity at 70.5 h [%] |
| --- | --- |
| CSc1cc2c(cc1NC(=O)NCc1ccncc1)OCCO2 | 2.15 |
| CCOC(=O)c1cnn(-c2cc(Oc3ccccc3C)ncn2)c1N | 23.9 |
| O=C(c1cscn1)N1C[C@H]2CCC[C@@]2(COCc2ccccn2)C1 | -6.34 |
| CCOCC1CN(S(=O)(=O)CC)Cc2cnn(CC3CC3)c21 (configuration not stated) | 6.24 |
| CCC(Nc1nc(C(C)C)nc2c1cnn2C)c1ccc(O)cc1 (configuration not stated) | 5.5 |
| CCN1CC2(CCC1=O)CCN(C(=O)c1ccc(C)cc1O)CC2 | -14.7 |
| CCN(CC)C(=O)[C@@H]1C[C@@H](NC(=O)c2cccn2C2CC2)CN1C | -7.5 |
| Cn1ccnc1CNC(=O)c1ccnc(C2CCNCC2)c1 | -6.57 |
| CNc1ccc(CC2CCCN(C(=O)c3cccc(C)n3)C2)nn1 (configuration not stated) | -0.376 |
| COc1ncccc1CN1Cc2nccn2CC(CN2CCCC2)C1 (configuration not stated) | -2.53 |
| CCN(CC)c1nc2sc(C(=O)NC(C)(C)C(=O)OC)cc2s1 | 0.56 |
| Cc1cccnc1NC(=O)C1CCN(C(C)C(=O)NC(C)(C)C)CC1 (configuration not stated) | -10.6 |
| CCOC(=O)[C@@H]1[C@@H](c2ccccc2)CN2CCN(C(C)=O)C[C@H]12 | -4.08 |
| O=C(c1ccccc1-n1cccn1)N1CCC(Nc2cccnn2)CC1 | -8.8 |
| O=C([C@H]1CCCO1)N1CCC2(CC1)CNCc1ccccc12 | 8.83 |
| O=C(Cn1cc(-c2ccccc2)cn1)N1CCNC1=O | -21.6 |
| CC(C(=O)Nc1ccc(Cl)cn1)n1ccc(C(F)(F)F)n1 (configuration not stated) | 1.33 |
| CCN(C(=O)CNC1CCc2ncnn2C1)C1=CCCCC1 (configuration not stated) | 4.5 |
| Cc1ccc(N(CCC#N)C(=O)CCc2cccnc2)cc1C | -5.18 |
| N#Cc1ccc(F)c(CN2CCc3sccc3C2)c1 | -5.04 |
| COc1ncc(-c2cc(NC3CCCC3)nc3[nH]ccc23)c(OC)n1 | -12 |

| Compound | cytotoxicity at 70.5 h [%] |
| --- | --- |
| O=C(O)C1CCCN(C(=O)CCn2ccc3c(Cl)cccc32)C1 (configuration not stated) | -17.2 |
| c1cncc(O[C@H]2CC[C@H]3[C@H]2OCCN3C2CCC2)c1 | -3.23 |
| O=C(NC[C@]12COC[C@H]1CN(Cc1nccs1)C2)c1ccsc1 | -3.53 |
| COc1ccc(NC(=O)CN2CCCCC2C2OCCO2)cc1 (configuration not stated) | -4.96 |
| CCN(Cc1ccc2c(c1)OCCO2)C(=O)NCCc1cnn(C)c1 | 0.223 |
| COc1ccc(COCC(=O)N2CCN(CC(C)(C)O)CC2)cc1 | -0.338 |
| OCCn1nnnc1Cc1ccc(Br)cc1 | -6.7 |
| CCn1ccnc1CN1CCCN(C(=O)Cc2ccc(C)cc2)CC1 | -1.67 |
| O=C(NCCSCc1ccco1)c1ccc(N2CCOCC2)cc1 | -12.3 |
| Cc1cc(C)n(CC2CCCN2C(=O)c2ccc3c(c2)COC3)n1 (configuration not stated) | -13.3 |
| Cc1n[nH]c(C)c1Sc1ccccc1NC(=O)CN1CCCC1 | -3.41 |
| c1ncn(CC2CCCN(Cc3nc(C4CC4)no3)C2)n1 (configuration not stated) | 31.5 |
| Cc1noc([C@@H]2C[C@H](NC(=O)NC(C)C)CN2C)n1 | -0.832 |
| O=C(NS(=O)(=O)c1ccc(F)cc1)C1CCOc2ccccc21 (configuration not stated) | -3.97 |
| O=C(C[S+]([O-])C1CCCC1)NCCOc1cccc(Cl)c1 (configuration not stated) | -6.11 |
| Cc1cc(Br)oc1C(=O)N1CCN(CC(N)=O)CC1 | -1.55 |
| CCc1nc(CNC(C)Cn2cccn2)cs1 (configuration not stated) | -11.9 |
| Cc1nn(C)cc1CN(C)C(=O)c1ccncc1 | 2.69 |
| Cn1cc(CN2C[C@H]3CCC[C@@]3(COc3ccccn3)C2)cn1 | -3.17 |
